Reference: patent publication US5112872A, “Antispasmodic agent” (Taiko Pharmaceutical Co., Ltd., priority 1989, dated 1992)
Where two headings read alike, the source gives them in different places.

What was measured:
strips of the ileum = assay: 100% inhibition of peristaltic motility of ileum strips, Pharmacological Test 1(b); set-up: species or system guinea pig (female Hartley); conditions: for IC100: Cavia porcellus, read-out: IC100 (dose causing 100% inhibition of the motility of the strip)
Method: (b) Experiments on the inhibition of peristaltic motility of intestinal strips were carried out in the same manner as Experiment (a) except that guaiacol, creosol, cresol, phenol and xylenol, all of which are components of creosote, were respectively used in lieu of creosote.

in vivo = conditions: rat, po

Row | Compound | antispasmodic activity (inhibition of intestinal motility), in words (strips of the ileum) | IC100 (strips of the ileum; strips of the ileum) [µg/mL] | LD50 (in vivo) [mg/kg] | IC100 (strips of the ileum) [µg/mL] | IC100 (dose causing 100% inhibition of the motility of the strip) (strips of the ileum; strips of the ileum) [g/mL]
1 | COc1cc(C)ccc1O [Creosol, creosol] | antispasmodic activity comparable to that of creosote | 100 |  |  | 
2 | COc1ccccc1O [Guaiacol, guaiacol] | antispasmodic activity comparable to that of creosote | 100 | 725 |  | 
3 | Oc1ccccc1 [Phenol, phenol] | antispasmodic activity comparable to that of creosote |  | 530 | 100 | 
4 | Cc1cccc(O)c1 [m-Cresol] |  |  | 2020 |  | 
5 | Cc1ccccc1O [o-Cresol] |  |  | 1350 |  | 
6 | Cc1ccc(O)cc1 [p-Cresol] |  |  | 1800 |  | 
7 | cresol | antispasmodic activity comparable to that of creosote |  |  |  | 0.0001
8 | xylenol | antispasmodic activity comparable to that of creosote |  |  |  | 0.0001
